The source of these data is patent US11932908B2, “Compositions and methods for diagnosis and treatment of epilepsy” (THE REGENTS OF THE UNIVERSITY OF CALIFORNIA, priority 2004, dated 2024).

One series concerns JME seizures. The note with it: JME patients, cited from earlier work.
For series [1] the following is noted: cited from earlier work.
The next series concerns T type VDCC. The note with it: cited from earlier work.
In a further series the target is P type HVDCC (Homo sapiens, UniProt O00555). The note with it: cited from earlier work.
In a further series the target is N type HVDCC (Homo sapiens, UniProt Q00975). The following applies: cited from earlier work.
The subject of another series is L-type HVDCC. The note with it: cited from earlier work.
Series [2] has as its system high voltage activated calcium currents (HVDCC). The note with it: cited from earlier work.
Series [3] deals with EFHC1-transfected hippocampal primary culture neurons. Description: Cell death analyses with VDCCs inhibitors. Type of series: cell-based, mouse. On the procedure:
Cell death analyses with VDCCs inhibitors. Dissociated hippocampal primary culture neurons from embryonic day 16 mice were seeded in 24 well plates containing poly-L-lysine coated coverslips (5×10^4 cells/well). Neurons were transfected with pEGFP-EFHC1 on day 6 in vitro with antagonists and fixed 48 hours post transfection. Calcium channel inhibitors, ω-Agatoxin IVA (PEPTIDE […], INC.) for P-type (Cav2.1), ω-Conotoxin GVIA (PEPTIDE […], INC.) for N-type (Cav2.2), SNX-482 (PEPTIDE […], INC.) for R-type (Cav2.3), flunarizine (Nacalai Tesque) for T-type and nifedipine (SIGMA) for L-type VDCC, were added directly to neuronal culture 3 hrs post transfection.

Another series concerns the target T1, R-type VDCC (Cav2.3) (Oryctolagus cuniculus, UniProt Q02343).
T1 construct: expressed in transfected cells; host or cells: BHK (BII-104-2) cells
Description: Patch-clamp analyses of BHK cells stably expressing Cav2.3 transfected with EFHC1 constructs. The series is classed as cell-based. The following applies: whole cell patch-clamp, 24-48 hr after transfection. On the procedure: Electrophysiological analysis. A baby hamster kidney (BHK) cell line BHK (BII-104-2) stably transfected with the ociE (BII), α2/δ and β1a subunits, were cultured in DMEM medium containing 10% fetal bovine serum (FBS), 30 U/mL penicillin and 30 μg/mL streptomycin. To transiently express wild type or mutant EFHC1, BHK (BII-104-2) cells were transfected with the pEGFP-C2 plasmids (Clonetech) containing EGFP fused with cDNA for EFHC1 or its mutants using SuperFect Transfection Reagent (QIAGEN). For control experiments, EGFP was transiently expressed by transfecting BHK (BII-104-2) with the same amount of pEGFP without the EFHC1 inserts. Cells were trypsinized, diluted with the DMEM medium, and plated onto glass coverslips 18 hrs after transfection. Ca^2+ currents were recorded 24-48 hr after transfection from GFP-positive cells. Currents from BHK (BII-104-2) cells were recorded at room temperature (22-25° C.) using patch-clamp techniques of whole cell mode with an EPC-9 amplifier (HEKA, Germany). Patch pipettes were made from borosilicate glass capillaries (1.5 mm outer diameter and 0.87 mm inner diameter; Hilgenberg) by using a model P-97 Flaming-Brown micropipette puller (Sutter Instrument Co., CA). Pipette resistance ranged from 2 to 3 MΩ when filled with the pipette solutions described below. The series resistance was electronically compensated to >70% and both the leakage and the remaining capacitance were subtracted by −P/6 method. Currents were sampled at 100 kHz in activation kinetics, otherwise sampled at 50 kHz and filtered at 10 kHz. Calcium currents were recorded in an external solution that contained (in mM): 3 CaCl2, 148 tetraethylammonium chloride (TEA-C1), 10 glucose, and 10 HEPES, pH adjusted to 7.4 with Tris-OH. The pipette solution contained (in mM): 85 Cs-aspartate, 40 CsCl, 4 MgCl2, 5 EGTA, 2 ATP2Na, 5 HEPES, and 8 creatine-phosphate, pH adjusted to 7.4 with CsOH. To determine voltage-dependence of activation, amplitude of tail currents at −50 mV after 5 ms test pulse (−40 to 90 mV) was normalized to the maximal tail current amplitude. […]

The next series concerns the target T2, PQ type VDCC (Cav2.1) (Oryctolagus cuniculus, UniProt P27884).
T2 construct: expressed in transfected cells; host or cells: HEK cell line
Description: Patch-clamp analyses of HEK cell line with P/Q type VDCCs and wild type EFHC1 or mutant constructs. Type of series: cell-based. The following applies: for Activation V0.5 (mV): half-maximal voltage of activation; for Activation V0.5 (mV) / Inactivation V0.5 (mV) / Activation k (mV) / Inactivation K (mV): mean ± SEM; for Inactivation V0.5 (mV): half-maximal voltage of inactivation; for Activation k (mV) / Inactivation K (mV): slope factor. On the technique in general: Patch clamp records ionic current or voltage across a cell membrane.

The subject of series [4] is mouse hippocampal primary culture neurons. The note with it: 24, 36 and 48 hours after transfection; mutants compared to wild-type EFHC1.
Description: Mouse hippocampal neurons primary culture. Hippocampal neurons were isolated from embryonic day 16 mice and plated at 1-2×10^5 cells per well in 24 well plate containing glass coverslips coated with poly-1-lysine and grown in serum-free NEUROBASAL™ media supplemented with B27, 0.5 mM L-glutamine (Invitrogen).
Transfection and immunostaining of mouse hippocampal neurons. […] Cultures were fixed with 4% paraformaldehyde in PBS 16 and 48 hours after transfection, permeabilized with 0.3% Triton X-100, blocked in 3% normal goat serum in PBS, and treated with mouse monoclonal anti-MAP-2 antibody (1:500; Sigma) and Alexa fluor 594 goat anti-mouse IgG antibody (1:1000; Molecular Probes).
TUNEL assay. […] Forty-eight hours after transfection, neuronal apoptosis was detected using DeadEndTM Fluorometric TUNEL System (Promega). Nuclei were visualized with Hoescht 33342 (Molecular Probes). These cells were also stained with anti-Myc antibody (1:200; Cell Signaling) and Alexa fluor 594 goat anti-rabbit IgG antibody (1:1000). All experiments were carried out in duplicate wells and at least repeated three times. Neuron cells were observed on a confocal microscope (OLYMPUS FLUOVIEW) following 48 hours post transfection.
Cell death analyses with EFHC1 mutants. […] Surviving cell numbers were scored by counting GFP fluorescent-positive cells that attached to dishes. At each counting, detached cells (dead cells) were carefully removed by changing culture medium. Morphologies of cells (cell shape, length and number of neurites, shrinkage, etc.) were not considered for the counting. Surviving cell numbers were scored at 24, 36, and 48 hours after transfection. Analyses were repeated twice by using two independently prepared expression construct DNAs. In total, neurons in seven wells of 24 well plates were counted for each transfection and time point. Experiments were performed in a blinded fashion.

Residue numbers refer to the chain shown, from its start. Names may count otherwise. “Also recorded” adds a separate entry of the source. Read-outs that look alike come from different tables or passages of the source.

T2 sequence (P27884 whole entry): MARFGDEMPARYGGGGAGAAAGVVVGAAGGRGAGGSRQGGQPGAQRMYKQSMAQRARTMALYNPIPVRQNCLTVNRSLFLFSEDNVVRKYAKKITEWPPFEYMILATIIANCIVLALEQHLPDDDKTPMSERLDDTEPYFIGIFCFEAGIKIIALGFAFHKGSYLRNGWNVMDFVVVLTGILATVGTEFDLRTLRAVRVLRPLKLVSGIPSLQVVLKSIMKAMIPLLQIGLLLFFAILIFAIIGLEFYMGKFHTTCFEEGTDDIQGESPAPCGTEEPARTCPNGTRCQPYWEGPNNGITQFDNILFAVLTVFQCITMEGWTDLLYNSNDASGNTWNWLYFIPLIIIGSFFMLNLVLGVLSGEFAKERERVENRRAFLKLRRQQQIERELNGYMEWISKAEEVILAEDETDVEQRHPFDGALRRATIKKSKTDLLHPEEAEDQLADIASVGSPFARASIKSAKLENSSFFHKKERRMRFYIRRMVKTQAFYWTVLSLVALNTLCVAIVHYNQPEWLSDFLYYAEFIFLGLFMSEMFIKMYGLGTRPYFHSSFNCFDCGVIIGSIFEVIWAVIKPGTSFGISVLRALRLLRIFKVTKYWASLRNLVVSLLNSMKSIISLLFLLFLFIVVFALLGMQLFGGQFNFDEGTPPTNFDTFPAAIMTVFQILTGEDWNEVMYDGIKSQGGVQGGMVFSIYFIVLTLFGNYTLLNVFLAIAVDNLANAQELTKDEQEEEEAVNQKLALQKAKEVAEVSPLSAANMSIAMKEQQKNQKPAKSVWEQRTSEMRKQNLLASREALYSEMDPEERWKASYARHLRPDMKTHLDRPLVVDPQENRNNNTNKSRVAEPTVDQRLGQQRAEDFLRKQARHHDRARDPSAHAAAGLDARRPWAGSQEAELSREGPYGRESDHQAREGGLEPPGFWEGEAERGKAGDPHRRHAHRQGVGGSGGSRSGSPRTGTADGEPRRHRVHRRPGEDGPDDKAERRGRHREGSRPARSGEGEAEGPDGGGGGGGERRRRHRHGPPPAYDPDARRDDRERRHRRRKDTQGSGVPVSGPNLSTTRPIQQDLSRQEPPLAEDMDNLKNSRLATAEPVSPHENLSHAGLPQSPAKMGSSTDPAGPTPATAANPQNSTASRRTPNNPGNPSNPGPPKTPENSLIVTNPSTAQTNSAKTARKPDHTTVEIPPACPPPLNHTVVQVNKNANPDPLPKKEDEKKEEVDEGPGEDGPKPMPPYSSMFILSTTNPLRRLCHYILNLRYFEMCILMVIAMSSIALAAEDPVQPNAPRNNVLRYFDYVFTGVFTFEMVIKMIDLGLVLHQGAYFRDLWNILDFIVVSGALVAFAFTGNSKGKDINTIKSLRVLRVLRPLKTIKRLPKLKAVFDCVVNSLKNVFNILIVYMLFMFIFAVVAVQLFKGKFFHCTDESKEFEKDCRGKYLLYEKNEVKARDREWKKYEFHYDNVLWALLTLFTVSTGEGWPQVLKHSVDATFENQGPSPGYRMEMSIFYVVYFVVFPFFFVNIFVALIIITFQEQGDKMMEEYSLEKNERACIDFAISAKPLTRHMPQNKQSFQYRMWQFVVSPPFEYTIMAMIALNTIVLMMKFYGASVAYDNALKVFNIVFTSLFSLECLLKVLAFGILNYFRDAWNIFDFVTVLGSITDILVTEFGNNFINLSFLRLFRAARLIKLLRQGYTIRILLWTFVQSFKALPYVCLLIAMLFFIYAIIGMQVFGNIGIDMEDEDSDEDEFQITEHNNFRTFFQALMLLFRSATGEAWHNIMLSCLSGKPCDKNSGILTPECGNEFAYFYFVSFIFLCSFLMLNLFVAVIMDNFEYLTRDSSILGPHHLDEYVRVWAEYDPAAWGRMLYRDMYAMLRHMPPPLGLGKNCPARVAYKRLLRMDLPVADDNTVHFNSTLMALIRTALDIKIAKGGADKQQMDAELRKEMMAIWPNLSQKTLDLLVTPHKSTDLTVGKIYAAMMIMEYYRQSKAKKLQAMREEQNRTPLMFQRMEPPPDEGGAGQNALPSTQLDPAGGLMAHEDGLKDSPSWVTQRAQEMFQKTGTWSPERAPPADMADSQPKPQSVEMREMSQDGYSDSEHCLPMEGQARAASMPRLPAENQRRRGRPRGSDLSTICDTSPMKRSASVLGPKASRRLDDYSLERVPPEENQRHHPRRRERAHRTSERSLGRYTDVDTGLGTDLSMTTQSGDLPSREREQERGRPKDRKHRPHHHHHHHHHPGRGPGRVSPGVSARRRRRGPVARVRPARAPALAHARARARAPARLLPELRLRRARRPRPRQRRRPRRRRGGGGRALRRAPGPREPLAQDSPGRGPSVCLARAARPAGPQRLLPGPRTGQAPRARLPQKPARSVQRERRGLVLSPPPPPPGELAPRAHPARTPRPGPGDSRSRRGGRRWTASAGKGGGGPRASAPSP
T2 sequence (P13806 27-1106 partner): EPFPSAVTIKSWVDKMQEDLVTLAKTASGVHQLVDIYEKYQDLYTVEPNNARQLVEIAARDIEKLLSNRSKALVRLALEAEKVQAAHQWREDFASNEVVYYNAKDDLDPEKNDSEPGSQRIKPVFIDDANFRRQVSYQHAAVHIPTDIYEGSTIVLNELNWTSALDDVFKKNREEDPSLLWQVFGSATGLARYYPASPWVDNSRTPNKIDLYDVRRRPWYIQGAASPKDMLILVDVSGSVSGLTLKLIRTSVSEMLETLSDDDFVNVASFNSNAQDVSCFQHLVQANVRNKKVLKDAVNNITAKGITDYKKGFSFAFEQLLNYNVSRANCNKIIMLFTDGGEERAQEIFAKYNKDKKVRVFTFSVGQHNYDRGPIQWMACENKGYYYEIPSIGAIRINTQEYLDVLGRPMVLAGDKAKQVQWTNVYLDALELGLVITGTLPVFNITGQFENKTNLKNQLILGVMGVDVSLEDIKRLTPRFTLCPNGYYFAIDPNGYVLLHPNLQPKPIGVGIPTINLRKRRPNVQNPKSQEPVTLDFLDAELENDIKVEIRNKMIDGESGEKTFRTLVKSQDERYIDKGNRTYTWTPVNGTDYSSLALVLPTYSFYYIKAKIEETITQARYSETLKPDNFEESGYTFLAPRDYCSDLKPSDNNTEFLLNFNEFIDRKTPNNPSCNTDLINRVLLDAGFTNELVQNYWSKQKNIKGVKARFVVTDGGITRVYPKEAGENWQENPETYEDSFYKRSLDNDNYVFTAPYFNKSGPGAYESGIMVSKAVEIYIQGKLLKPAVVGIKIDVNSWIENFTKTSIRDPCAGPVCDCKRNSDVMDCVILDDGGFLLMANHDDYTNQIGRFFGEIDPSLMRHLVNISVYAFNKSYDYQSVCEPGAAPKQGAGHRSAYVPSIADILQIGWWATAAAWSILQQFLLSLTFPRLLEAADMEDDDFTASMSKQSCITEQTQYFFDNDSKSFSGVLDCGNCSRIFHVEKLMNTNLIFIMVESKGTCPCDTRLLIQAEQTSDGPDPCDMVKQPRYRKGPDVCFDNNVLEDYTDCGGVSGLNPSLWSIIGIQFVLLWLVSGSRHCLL
T2 sequence (P19517 whole entry partner): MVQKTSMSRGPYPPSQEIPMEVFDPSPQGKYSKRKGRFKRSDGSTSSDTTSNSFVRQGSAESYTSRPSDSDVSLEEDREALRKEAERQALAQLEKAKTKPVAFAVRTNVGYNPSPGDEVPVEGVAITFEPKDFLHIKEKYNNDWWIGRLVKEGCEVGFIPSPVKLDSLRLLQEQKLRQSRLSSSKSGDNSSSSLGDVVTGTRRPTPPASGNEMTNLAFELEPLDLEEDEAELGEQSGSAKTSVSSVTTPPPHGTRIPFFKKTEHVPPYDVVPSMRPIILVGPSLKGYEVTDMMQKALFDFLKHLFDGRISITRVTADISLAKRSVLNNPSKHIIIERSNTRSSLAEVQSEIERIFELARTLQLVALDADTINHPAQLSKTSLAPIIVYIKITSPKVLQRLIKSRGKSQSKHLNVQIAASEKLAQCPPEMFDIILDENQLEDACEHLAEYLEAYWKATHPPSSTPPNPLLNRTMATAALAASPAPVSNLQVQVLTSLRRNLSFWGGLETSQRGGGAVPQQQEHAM

Consider `NC(=O)N1c2ccccc2C=Cc2ccccc21` [Carbamazepine], for which, in the series on JME seizures, the “absences in JME” value is reported as “make absence appear for the first time” and the “effect on JME seizures” value is “can make seizures worse; also recorded: have no effects on or aggravate JME seizures”. Besides, the “effect on JME seizures” value in the series on JME seizures (listed as carbamezapine) was “can make seizures worse”. In series [1], the “Seizure protecting plasma concentrations in humans” value was 4 to 10 µg/mL.
As to `CCC1(C)CC(=O)NC1=O` (centres unmarked) [Ethosuximide], the “T type VDCC” value in the series with T type VDCC (thalamic neurons) is “reduce”; in the series on T type VDCC (thalamic neurons, listed as ethozuximide), “reduces”. Besides, the “effect on JME seizures” value in the series with JME seizures was “no effects; also recorded: have no effects on or aggravate JME seizures”. Besides, the “Seizure protecting plasma concentrations in humans” value in series [1] is 40 to 100 µg/mL.
As for `Nc1nnc(-c2cccc(Cl)c2Cl)c(N)n1` [Lamotrigine], the “P type HVDCC” value on P type HVDCC was “inhibits”. The “N type HVDCC” value at N type HVDCC is recorded as “inhibits”. Also, the “L type HVDCC” value in the series with L-type HVDCC was “spares”. Moreover, the “effect on JME seizures” value with JME seizures is “seizure-suppressing; also recorded: suppress JME seizures; also recorded: seizure suppressing”. The “Seizure protecting plasma concentrations in humans” value in series [1] is 3 to 14 µg/mL.
Take `CC[C@@H](C(N)=O)N1CCCC1=O` [Levetiracetam]: in the series with T type VDCC, the “T type VDCC” value is given as “no effects”. In addition, the “effect on JME seizures” value in the series on JME seizures is recorded as “seizure-suppressing; also recorded: suppress JME seizures; also recorded: seizure suppressing”. In addition, the “Seizure protecting plasma concentrations in humans” value in [1] is 5 to 45 µg/mL. The “high voltage activated calcium currents” value in series [2] (specific type not defined) is given as “depresses”.
As to `CCC1(c2ccccc2)C(=O)NC(=O)NC1=O` [Phenobarbital], the “Seizure protecting plasma concentrations in humans” value in series [1] is 10 to 40 µg/mL.
As for `O=C1NC(=O)C(c2ccccc2)(c2ccccc2)N1` [Phenytoin], in the series on JME seizures, the “absences in JME” value is “make absence appear for the first time” and the “effect on JME seizures” value is given as “can make seizures worse; also recorded: have no effects on or aggravate JME seizures”. Also, the “Seizure protecting plasma concentrations in humans” value in series [1] was 10 to 20 µg/mL.
For `CC1(C)O[C@@H]2[C@@H](CO[C@@]3(COS(N)(=O)=O)OC(C)(C)O[C@@H]23)O1` [Topiramate], the “peak of L-type HVDCC” value with L-type HVDCC (10 μmol/L) was “decreased”. Further, in the series with JME seizures, the “effect on JME seizures” value was “seizure-suppressing; also recorded: suppress JME seizures; also recorded: seizure suppressing”. Moreover, the “Seizure protecting plasma concentrations in humans” value in series [1] is 5 to 10 µg/mL.
For the molecule `CCCC(CCC)C(=O)O` [Valproate], the “Seizure protecting plasma concentrations in humans” value in series [1] was 40 to 150 µg/mL.
With `NS(=O)(=O)Cc1noc2ccccc12` [Zonisamide], the “P-type calcium channel activity” value at P type HVDCC (500 μmol/L) is “possibly reduces”. Also, the “N-type Ca^2+ channel activity” value on N type HVDCC (500 μmol/L) is given as “enhances”. Besides, in the series with T type VDCC (500 μmol/L, cultured fetal rat cortical neurons), the “T type LVDCC” value was “reduces”. Besides, the “effect on JME seizures” value with JME seizures is “suppress JME seizures”; with JME seizures (listed as zonizamide), “seizure-suppressing; also recorded: seizure suppressing”. Also, in series [1], the “Seizure protecting plasma concentrations in humans” value is 15 to 40 µg/mL. Besides, the HVDCC entry in series [2] (500 μmol/L) was “does not alter”.
Turning to `CN1C(=O)OC(C)(C)C1=O` [trimethadione], the “T type VDCC” value in the series on T type VDCC (thalamic neurons) is on record as “reduce”. Moreover, the “effect on JME seizures” value in the series on JME seizures is recorded as “no effects in JME”.
For the molecule SNX-482, the “apoptosis induced by EFHC1 overexpression” value in [3] (mouse hippocampal primary culture neurons) is recorded as “specifically suppressed”. The “survival rates of EFHC1-positive neurons” value in [3] (surviving cells 48 hours after transfection, antagonist added 3 hrs post transfection) is “specifically increased”.

B1: F229L: EFHC1 protein with JME missense mutation F229L (Phe229Leu) (protein)
chain: MVSNPVHGLPFLPGTSFKDSTKTAFHRSQTLSYRNGYAIVRRPTVGIGGDRLQFNQLSQAELDELASKAPVLTYGQPKQAPPADFIPAHVAFDKKVLKFDAYFQEDVPMSTEEQYRIRQVNIYYYLEDDSMSVIEPVVENSGILQGKLIKRQRLAKNDRGDHYHWKDLNRGINITIYGKTFRVVDCDQFTQVFLESQGIELNPPEKMALDPYTELRKQPLRKYVTPSDLDQLKQFLTFDKQVLRFYAIWDDTDSMYGECRTYIIHYYLMDDTVEIREVHERNDGRDPFPLLMNRQRVPKVLVENAKNFPQCVLEISDQEVLEWYTAKDFIVGKSLTILGRTFFIYDCDPFTRRYYKEKFGITDLPRIDVSKREPPPVKQELPPYNGFGLVEDSAQNCFTLIPKAPKKDVIKMLVNDNKVLRYLAVLESPIPEDKDRRFVFSYFLATDMISIFEPPVRNSGIIGGKYLGRTKVVKPYSTVDNPVYYGPSDFFIGAVIEVFGHRFIILDTDEYVLKYMESNAAQYSPEALASIQNHVRKREAPAPEAESKQTEKDPGVQELEALIDTIQKQLKDHSCKDNIREAFQIYDKEASGYVDRDMFFKICESLNVPVDDSLVKELIRMCSHGEGKINYYNFVRAFSN
Turning to B1, the “R-type Ca2+ current generated by Cav2.3” value with R-type VDCC (Cav2.3) was “significantly suppressed”. Moreover, in the series with PQ type VDCC (Cav2.1), the “Activation V0.5 (mV)” value worked out at 21.0 ± 3.4 mV, the “Inactivation V0.5 (mV)” value is reported as −13.7 ± 2.4 mV, the “Activation k (mV)” value is reported as 9.25 ± 0.43 mV and the “Inactivation K (mV)” value was 6.53 ± 0.41 mV. In addition, the “inactivation speed of P/Q type VDCC (decelerating effect on calcium inactivation)” value with PQ type VDCC (Cav2.1) (patch-clamp) is on record as “abolished the decelerating effect”. Besides, the “cell-death effect (GFP-positive surviving cell numbers)” value in [4] is listed as “significantly reversed”.

B2: D253Y: EFHC1 protein with JME missense mutation D253Y (Asp253Tyr) (protein)
chain: B1 chain with L229F, D253Y
As to B2, in the series with PQ type VDCC (Cav2.1) (cells co-transfected with P/Q-type VDCC and EFHC1 constructs), the “Ca2+ current density of P/Q-type VDCC (Cav2.1)” value is recorded as “prominently increased”. Further, the “sustained component of calcium currents” value with PQ type VDCC (Cav2.1) (compared with vector-transfected control P/Q-type-expressing cells) is on record as “reduced”. In addition, in the series with PQ type VDCC (Cav2.1), the “Activation V0.5 (mV)” value is 19.7 ± 2.0 mV, the “Inactivation V0.5 (mV)” value was −10.9 ± 1.8 mV, the “Activation k (mV)” value stood at 7.60 ± 0.51 mV and the “Inactivation K (mV)” value is on record as 6.08 ± 0.22 mV. Moreover, the “cell-death effect (GFP-positive surviving cell numbers)” value in series [4] is on record as “significantly reversed”.
